Assay results from patent US8716275B2, “Compound for the treatment of hepatitis C” (Bristol-Meyers Squibb Company, priority 2011, dated 2014).

Key:
[1] = biological target: NS5B protein of HCV, genotype 1b (Hepatitis C virus genotype 1b, UniProt Q9WMX2); assay: biochemical
Protocol: The cDNA encoding the NS5B protein of HCV, genotype 1b, was cloned into the pET21a expression vector. The protein was expressed with an 18 amino acid C-terminal truncation to enhance the solubility. The E. coli competent cell line BL21(DE3) was used for expression of the protein. Cultures were grown at 37° C. for ˜4 hours until the cultures reached an optical density of 2.0 at 600 nm. The cultures were cooled to 20° C. and induced with 1 mM IPTG. Fresh ampicillin was added to a final concentration of 50 μg/mL and the cells were grown overnight at 20° C.
The lysis buffer consisted of 20 mM Tris-HCl, pH 7.4, 500 mM NaCl, 0.5% triton X-100, 1 mM DTT, 1 mM EDTA, 20% glycerol, 0.5 mg/mL lysozyme, 10 mM MgCl2, 15 ug/mL deoxyribonuclease I, and Complete TM protease inhibitor tablets (Roche). After addition of the lysis buffer, frozen cell pellets were resuspended using a tissue homogenizer. […]
After incubating for at least 15 minutes, plates were read on an Amersham LEADseeker multimodality imaging system.
IC50 values for compounds were determined using ten different [I]. IC50 values were calculated from the inhibition using the four-parameter logistic formula y=A+((B−A)/(1+((C/x)^D))), where A and B denote minimal and maximal % inhibition, respectively, C is the IC50, D is hill slope and x represents compound concentration.

[2] = system: genotype 1b HCV replicon in Huh-7 cells; assay: HCV Replicon Luciferase Assay; assay type: cell-based; settings: Hepatitis C virus, Huh-7, 72 h
Protocol: Cell Lines. The cell lines used to evaluate compounds consist of a human hepatocyte derived cell line (Huh-7) that constitutively expresses a genotype 1b HCV replicon containing a Renilla luciferase reporter gene. These cells were maintained in Dulbecco's modified Eagle medium (DMEM) containing 10% FBS, 100 U/mL penicillin/streptomycin and 1.0 mg/mL G418.
HCV Replicon Luciferase Assay. To evaluate compound efficacy, titrated compounds were transferred to sterile 384-well tissue culture treated plates, and the plates were seeded with HCV replicon cells (50 μL at a density of 2.4×10^3 cells/well) in DMEM containing 4% FBS (final DMSO concentration at 0.5%). After 3 days incubation at 37° C., cells were analyzed for Renilla Luciferase activity using the EnduRen substrate (Promega cat #E6485) according to the manufacturer's directions. Briefly, the EnduRen substrate was diluted in DMEM and then added to the plates to a final concentration of 7.5 μM. The plates were incubated for at least 1 h at 37° C. then read on a Viewlux Imager (PerkinElmer) using a luminescence program. The 50% effective concentration (EC50) was calculated using the four-parameter logistic formula noted above.

hERG potassium channel [3] = biological target: T1, hERG potassium channel (Homo sapiens, UniProt Q12809); assay: hERG Flux assay (FLIPR); assay type: cell-based; settings: HEK293 cells stably-expressing hERG, thallium flux
T1 construct: expressed in transfected cells; host or cells: HEK293
Protocol: Cells are incubated at 21° C. for 45 minutes.
Data Analysis. […] The raw fluorescence units data files generated on the FLIPR plate reader are automatically exported and processed by in-house data analysis tools.

hERG potassium channel [4] = biological target: T1, hERG potassium channel; assay: hERG patch clamp assay; assay type: cell-based; settings: HEK293 cells stably transfected with hERG cDNA, peak tail currents, read-out: % Inhibition (Mean ± SE)
Source text: Cell Line. Human embryonic kidney (HEK293) cells stably transfected with human ether-a-go-go related gene (hERG) cDNA were used in the hERG assay. The biophysical and pharmacological properties of recombinant hERG channels expressed in HEK293 cells and of native IKr channels in human cardiac cells are nearly identical. Several known hERG blockers, including dofetilide, terfenadine, cisapride and E-4031 inhibit recombinant hERG currents in the hERG stable cell line and IKr currents in isolated cardiac myocytes with identical potency.
Patch Clamp. […]
Initially, a current-voltage relationship was generated in the control bath solution using the following voltage protocol. hERG currents were elicited by 2 second step depolarizations applied from a holding potential of −80 mV to test potentials ranging from −70 mV to +60 mV. […] The peak tail current was monitored until a new steady-state in the presence of test article was achieved. This was followed by the application of the next higher concentration of test article to be tested, and was repeated until all concentrations of test article had been evaluated. Effects of test article on hERG channel were calculated by measuring inhibition of peak tail currents. Percent inhibition of tail currents was plotted as a function of test article concentration to quantify hERG channel inhibition. […] All currents were recorded at room temperature 25° C.

T1 sequence (Q12809 whole entry): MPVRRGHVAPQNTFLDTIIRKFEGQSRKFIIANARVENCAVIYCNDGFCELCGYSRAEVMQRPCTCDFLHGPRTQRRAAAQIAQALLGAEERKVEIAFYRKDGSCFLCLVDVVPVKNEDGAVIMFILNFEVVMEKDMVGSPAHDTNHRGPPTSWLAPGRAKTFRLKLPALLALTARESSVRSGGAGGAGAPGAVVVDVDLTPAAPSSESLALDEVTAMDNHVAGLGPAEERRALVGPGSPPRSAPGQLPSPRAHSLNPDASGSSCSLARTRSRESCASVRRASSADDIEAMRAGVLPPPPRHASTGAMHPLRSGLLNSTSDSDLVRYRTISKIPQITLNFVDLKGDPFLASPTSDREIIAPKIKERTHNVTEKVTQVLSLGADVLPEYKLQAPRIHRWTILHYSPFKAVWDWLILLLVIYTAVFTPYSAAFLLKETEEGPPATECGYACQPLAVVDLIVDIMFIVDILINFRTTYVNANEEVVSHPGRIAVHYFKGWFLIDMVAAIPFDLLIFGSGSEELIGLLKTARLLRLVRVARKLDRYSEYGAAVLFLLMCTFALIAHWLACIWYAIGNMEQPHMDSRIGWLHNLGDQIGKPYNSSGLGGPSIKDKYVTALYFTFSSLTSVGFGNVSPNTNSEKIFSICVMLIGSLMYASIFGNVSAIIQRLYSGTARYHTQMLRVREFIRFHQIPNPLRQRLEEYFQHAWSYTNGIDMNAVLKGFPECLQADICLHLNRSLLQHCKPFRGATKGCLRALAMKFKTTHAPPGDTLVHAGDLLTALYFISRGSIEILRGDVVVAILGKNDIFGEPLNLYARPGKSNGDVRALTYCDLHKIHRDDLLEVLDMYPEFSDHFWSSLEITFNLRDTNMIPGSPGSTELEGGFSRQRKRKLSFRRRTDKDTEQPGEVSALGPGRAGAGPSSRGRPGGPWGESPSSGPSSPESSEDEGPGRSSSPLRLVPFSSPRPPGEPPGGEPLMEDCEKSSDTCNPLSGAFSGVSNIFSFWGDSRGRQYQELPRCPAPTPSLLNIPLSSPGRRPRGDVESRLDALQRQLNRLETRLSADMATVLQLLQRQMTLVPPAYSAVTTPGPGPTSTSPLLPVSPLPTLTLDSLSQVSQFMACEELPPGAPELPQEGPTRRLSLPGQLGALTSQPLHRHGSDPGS
Chain of NS5B protein of HCV, genotype 1b (Q9WMX2 2420-2992): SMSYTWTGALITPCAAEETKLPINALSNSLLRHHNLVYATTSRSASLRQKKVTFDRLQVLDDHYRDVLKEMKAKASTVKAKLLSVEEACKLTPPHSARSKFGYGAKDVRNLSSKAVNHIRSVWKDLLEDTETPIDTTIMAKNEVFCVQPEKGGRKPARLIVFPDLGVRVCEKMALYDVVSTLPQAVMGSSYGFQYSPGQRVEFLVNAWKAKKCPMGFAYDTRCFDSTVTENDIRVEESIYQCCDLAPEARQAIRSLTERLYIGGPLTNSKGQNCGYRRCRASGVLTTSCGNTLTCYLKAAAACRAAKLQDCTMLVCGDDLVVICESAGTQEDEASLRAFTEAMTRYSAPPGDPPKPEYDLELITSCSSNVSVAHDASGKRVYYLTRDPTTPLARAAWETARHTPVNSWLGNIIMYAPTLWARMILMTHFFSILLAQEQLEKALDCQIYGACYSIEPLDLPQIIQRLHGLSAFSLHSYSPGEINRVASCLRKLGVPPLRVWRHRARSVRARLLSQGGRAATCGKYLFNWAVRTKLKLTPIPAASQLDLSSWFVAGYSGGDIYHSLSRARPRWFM

## CN1CC2CCC(C1)N2C(=O)[C@]12C[C@H]1c1cc(F)ccc1-c1c(C3CCCCC3)c3ccc(C(=O)NS(=O)(=O)C4(C)CC4)cc3n1C2 [Compound I, (1aR,12bS)-8-cyclohexyl-11-fluoro-N-((1-methylcyclopropyl)sulfonyl)-1a-((3-methyl-3,8-diazabicyclo[3.2.1]oct-8-yl)carbonyl)-1,1a,2,12b-tetrahydrocyclopropa[d]indolo[2,1-a][2]benzazepine-5-carboxamide]
[1]
  IC50: 5 nM
[2]
  EC50: 7 nM
hERG potassium channel [3]
  IC50: 23400 nM
hERG potassium channel [4]; pH 7.4, Conc. 10 μM
  inhibition at 10 μM: 30.5 ± 1.9%
hERG potassium channel [4]; pH 7.4, Conc. 30 μM
  inhibition at 30 μM: 43.4 ± 2%
